The values below come from patent publication US7582786B2, “Synthetic catalytic free radical scavengers useful as antioxidants for prevention and therapy of disease” (Eukarion Inc., priority 1996, dated 2009).

Structures are written as SMILES. Marks after values point to notes of the source that are not given here.

Assay [1] is described as follows: SOD activity, xanthine/xanthine oxidase with cytochrome C as acceptor (Example 2). The assay is classed as biochemical. To be noted: for SOD: relative to C7 (C7 = 100). The method, then: Superoxide dismutase (SOD) activity was assayed by following the inhibition of the reduction of an electron acceptor molecule in the presence of the free-radical generating system xanthine/xanthine oxidase (McCord et al. (1973) Superoxide and Superoxide Dismutase in “Oxidases and Related Redox Systems, vol. I, King et al. eds., University Park press, Baltimore, pp. 51-76). The assay mixture consisted of 50 mM sodium phosphate, pH 7.8, 120 μM xanthine, 0.2 units/ml xanthine oxidase, with acceptor molecule and salen manganese compound, as indicated. Assays were conducted at 27±0.2° C. using a water-jacketed cell holder in a Beckman DU7400 spectrophotometer. In most cases, oxidized cytochrome c, at 0.13 mg/ml, was employed as acceptor and its reduction was monitored spectrophotometrically at 550 nm. In some experiments, nitroblue tetrazolium (NBT), at 80 μM, was substituted for cytochrome c as the acceptor. NBT reduction was also monitored at 550 nm. An estimated extinction coefficient for NBT reduction, 20,800 M^−1cm^−1, determined empirically by exhaustive reduction of NBT in the reaction mixture described above, was employed where indicated. […] Conversion of xanthine to urate was calculated using ε290's of […] for urate and 4050 M^−1cm^−1 for xanthine. […] For each compound, at least four different concentrations were tested in duplicate.

Assay [2] is described as follows: Peroxidase activity, H2O2-dependent oxidation of ABTS (Example 2). The assay is classed as biochemical. The conditions noted are these: relative to C7 (C7 = 100). The method, then: Peroxidase activity was assayed by monitoring the hydrogen peroxide-dependent oxidation of 2,2′-azino-bis(3-ethylbenzthiazoline-6) sulfonic acid (ABTS) spectrophotometrically. Standard assay mixtures consisted of 50 mM sodium phosphate, pH 8.1, 0.9% sodium chloride, 0.5 mM ABTS, and H2O2 and salen manganese complex as indicated. Where indicated, 50 mM sodium phosphate buffers of pH 6.0 or pH 7.1 were substituted. Assays were conducted at 27±0.2° C. ABTS oxidation was monitored at 740 or 500 nm to eliminate interference by the salen manganese complexes, many of which absorb in the vicinity of the λmax of oxidized ABTS, and to avoid absorbance values that exceeded the linear range of the spectrophotometer. The amount of oxidized ABTS was estimated using an Δε740 of 20,300 M^−1cm^−1 or an Δε500 of 3400 M^−1cm^−1 calculated based upon the published molar extinction coefficient oat 405 nm (36,800).
(§1) Catalase and peroxidase activities were assayed as described in Example 2. Catalase assays contained 10 μM salen-manganese complex and 10 mM hydrogen peroxide. Peroxidase assays contained 10 μM salen-manganese complex and 0.2 mM hydrogen peroxide. Glucose-glucose oxidase toxicity assays were performed using human dermal fibroblasts as described in Example 2.

Assay [3] is described as follows: Catalase activity, conversion of H2O2 to oxygen, polarographic oxygen electrode (Example 2). The format is biochemical. The conditions noted are these: relative to C7 (C7 = 100). How it is done: Catalase activity was assayed by monitoring the conversion of H2O2 to oxygen using a Clark-type polarographic oxygen electrode. The apparatus consisted of a Mini Clark Style electrode, a 600 μl Oxygen Uptake Chamber, and a Chemical Microsensor system, all obtained from Diamond General Corporation (Ann Arbor, Mich.). The electrode was calibrated by immersion in nitrogen- or air-equilibrated buffers using a Dual Chamber Calibration Cell (Diamond General,. Corp.). Catalase reaction mixtures consisted of 50 mM sodium phosphate, pH 8.1, 0.9% sodium chloride, and salen manganese complex and H2O2 at the indicated concentrations. The temperature of the water-jacketed reaction chamber, as well as the calibration buffers, was maintained at 25±0.1° C. Data were collected at 1 sec intervals and stored-on a MacIntosh II computer using data acquisition hardware and software by Strawberry Tree, Inc. (Sunnyvale, Calif.). Dissolved oxygen concentrations were calculated as described previously (Del Rio et al. (1977) Anal. Biochem. 80: 409) based on a value of 2.5×10^−4 M oxygen for air-saturated buffer at 25° C. Linearity of the dissolved oxygen measurements within the experimental range was continued by determining the amount of oxygen generated from known quantities of H2O2 during exhaustive treatment with bovine liver catalase. Stock solutions of H2O2 were prepared by diluting a commercial 30% H2O2 solution in water and the H2O2 concentrations in these stocks were determined by absorbance at 240 nm, using a molar extinction coefficient of 44 (Stadtman, E R. et al. (1990) Proc. Natl. Acad. Sci. USA 87: 384). […] In the absence of salen manganese complex, H2O2 alone typically produced an early, relatively slow increase in signal. The slope of this increased signal was not proportional to H2O2 concentration (for example in one experiment, 1 and 10 Mm H2O2 yielded apparent rates of 12 and 14 μM oxygen per min, respectively) and may be due to an electrode artifact. […] Where presented, initial rates were calculated by determining the slope of the linear portion of time dependent plots of oxygen generation, usually comprising the first five seconds of the reaction. Unless otherwise indicated, these were corrected by subtracting the rate obtained with H2O2 alone. Where presented, endpoint oxygen generated was calculated from time-dependent plots, such as those shown in FIG. 14, as the difference between the baseline oxygen concentration immediately prior to substrate addition and the maximal oxygen concentration achieved during the course of the reaction. All reactions subjected to these calculations were run for a sufficient time to ensure that oxygen generation had ceased.
as §1

In assay [4] the test system is isolated iron-overloaded rat hearts. As to the kind of experiment: Isolated iron-overloaded rat hearts submitted to ischemia and reperfusion (function and electron microscopy). How it is done:
Rats received an intramuscular injection of 0.25 ml of an iron-dextran solution (100 g iron hydroxide, 99 g dextran, water up to 1 l) every third day during a 5-week period to achieve a significant iron overload in cardiac tissue. At the end of this treatment, rats were anesthetized with sodium pentobarbital (40 mg/kg) and heparin (1,000 IU/kg) was administered via a femoral vein. Hearts were then removed and rapidly perfused through the aorta according to the technique described by Langendorff [Langendorff, O., Pflügers Arch. 61: 291, 1895] at a constant flow rate of 11 ml/minute. The perfusion fluid was a modified Krebs-Henseleit buffer containing (in mmol/l): NaCl 118, KCl 5.9, NaHCO3 25, MgCl2 1.2, NaH2PO4 0.6, CaCl2 2.4, Glucose […]. pH was maintained at 7.4±0.05 when the perfusion medium was saturated with O2—CO2 (95%-5%) at 37° C. The perfusion apparatus was fully thermostated such that the temperature of the perfusion medium was 37.0±0.5° C. when it reached the aorta. An ultra-thin balloon was inserted in the left ventricle immediately after the initiation of aortic perfusion and was inflated so as to obtain an end-diastolic pressure of 5 mm Hg. A 15 minute stabilization period was initiated immediately following balloon placement. At the end of this period, systolic and diastolic ventricular pressures and heart beat rate (HR) were recorded through a pressure transducer linked to the ventricular balloon. Left Ventricular Developed Pressure (LVDP) was calculated by the difference between systolic and diastolic pressure and the product HR×LVDP was taken as an index of oxygen consumption. Hearts were then subjected to a 15 minute total global normothermic ischemia, followed by 15 minutes of reperfusion with the perfusion medium used initially. During this 15 minute reperfusion, heart rate, and diastolic and systolic pressures were monitored. Early ventricular fibrillations were analyzed 1 min. after the start of the reperfusion.
Three experimental groups were studied.
After the 15 minute reperfusion, 3 hearts in each group were prepared for electron microscopy by perfusion with 2.5% glutaraldehyde. Ultra-thin slices (500-600 Å thickness) were examined.
Mitochondria were classified into Type A (normal), Type B (swollen, unbroken), and Type C (ruptured membranes). Sarcomeres were classified into Type A (normal) and Type B (contacted and/or necrosis). The results are expressed as percentages.

Where [5] appears, read: 1 minute after reperfusion, DMTU 10 mM, C7 50 μM.
Where [6] appears, read: 15 minutes after reperfusion, DMTU 10 mM, C7 50 μM.
Where [7] appears, read: Before ischemia, DMTU 10 mM, C7 50 μM.
The mark [8] stands for this setting: electron microscopy after 15 minute reperfusion.

`COc1cc(OC)c2c(c1)[O][Mn]([Cl])[O]c1cc(OC)cc(OC)c1C=NCCN=C2` [Compound C39] showed an SOD in assay [1] of 27.
Turning to `COc1cc2c(c(OC)c1)[O][Mn]([O]C(C)=O)[O]c1c(cc(OC)cc1OC)C=NCCN=C2` [Compound C42], the SOD in assay [1] came out at 130. Further, the Peroxidase in assay [2] worked out at 171. Besides, in assay [3], the Catalase endpt. was found to be 379 and the Catalase rate is listed as 231.
On the same counts, the results for `CC(=O)[O][Mn]1[O]c2ccccc2C=Nc2cccnc2N=Cc2ccccc2[O]1` [Compound C43] are 57, 71, 494 and 446.
Compound `COc1cccc2c1[O][Mn]([O]C(C)=O)[O]c1c(cccc1OC)C=Nc1ncccc1N=C2` [Compound C45] showed an SOD in assay [1] of 83. Also, the Peroxidase in assay [2] is reported as 24. Besides, in assay [3], the Catalase endpt. worked out at 674 and the Catalase rate was 357.
On the same counts, the results for `COc1cccc2c1[O][Mn]([O]C(C)=O)[O]c1c(cccc1OC)C=Nc1ccccc1N=C2` [Compound C48] are 91, 88, 741 and 485.
Take `COc1cccc2c1[O][Mn]([Cl])[O]c1c(cccc1OC)C=NC1CCCCC1N=C2` (stereo not shown) [Compound C49]: in assay [1], the SOD was 88. The compound also yielded a Peroxidase in assay [2] of 138. In assay [3], this compound showed a Catalase endpt. of 285 and a Catalase rate of 123.
Turning to `[O]=[V]1[O]c2ccccc2C=NCCN=Cc2ccccc2[O]1` [Compound C53], in assay [1], the “SOD activity (in words)” value was “noncatalytic SOD activity” and the SOD result is on record as “Noncatalytic”. Besides, the Peroxidase in assay [2] came out at 0. Moreover, in assay [3], the Catalase endpt. is given as 0 and the Catalase rate came out at 0.
`[F][Mn]1[O]c2ccccc2C=NCCN=Cc2ccccc2[O]1` [Compound C54]: the SOD in assay [1] amounted to 75. Moreover, the Peroxidase in assay [2] is 116.
Compound `[Br][Mn]1[O]c2ccccc2C=NCCN=Cc2ccccc2[O]1` [Compound C55] registered an SOD in assay [1] of 178. In addition, the Peroxidase in assay [2] came to 101.
As for `O=[N+]([O-])[Mn]1[O]c2ccccc2C=NCCN=Cc2ccccc2[O]1` [Compound C56], the SOD in assay [1] was determined as 200. This compound had a Peroxidase in assay [2] of 107.
Consider `[Cl][Fe]1[O]c2ccccc2C=NCCN=Cc2ccccc2[O]1` [Compound C57], for which the SOD in assay [1] is listed as 33.
In the case of `C1=NCCN=Cc2ccccc2[O][Zn][O]c2ccccc21` [Compound C60], the SOD in assay [1] is on record as 0. Besides, the Peroxidase in assay [2] was determined as 0.
In assay [1], `C1=NCCN=Cc2ccccc2[O][Cu][O]c2ccccc21` [Compound C63] yielded an SOD of 0. Besides, the Peroxidase in assay [2] is 0.
In assay [1], `CCOc1cccc2c1[O][Mn]([Cl])[O]c1c(cccc1OCC)C=NCCN=C2` [Compound C67] had an SOD of 94. This compound also gave a Peroxidase in assay [2] of 134. In assay [3], this compound yielded a Catalase endpt. of 256 and a Catalase rate of 159.
With `CCOc1cccc2c1[O][Mn]([O]C(C)=O)[O]c1c(cccc1OCC)C=NCCN=C2` [Compound C68], the SOD in assay [1] is on record as 88. This compound also had a Peroxidase in assay [2] of 162. Besides, in assay [3], the Catalase endpt. is listed as 326 and the Catalase rate turned out to be 196.
On to `CC(=O)[O][Mn]1[O]c2c(O)cccc2C=NCCN=Cc2cccc(O)c2[O]1` [Compound C71], for which the SOD in assay [1] turned out to be 75.
Same read-out and setting: the result for `Oc1ccc2c(c1)[O][Mn]([Cl])[O]c1cc(O)ccc1C=NCCN=C2` [Compound C72] reads 58; that for `CC(=O)[O][Mn]1[O]c2cc(O)ccc2C=NCCN=Cc2ccc(O)cc2[O]1` [Compound C73], 61.
On to `CC(=O)[O][Mn]1[O]c2ccc(O)cc2C=NCCN=Cc2cc(O)ccc2[O]1` [Compound C74], for which the SOD in assay [1] came to 65.
Take `CNC(=S)NC` [DMTU, dimethylthiourea]: in assay [4] (setting [5]), the DP worked out at 37.2 ± 10.0 mm Hg, the HR came out at 91 ± 10 beats/min, the “HR × LVDP” value is listed as 3.5 ± 1.2 ×10.3 and the SP stood at 62 ± 9 mm Hg. For the same compound, the “VF, number of hearts exhibiting episodes of ventricular fibrillation” value in assay [4] (setting [5]) was 3/8. In addition, in assay [4] (setting [6]), the DP is on record as 27.8 ± 9.4 mm Hg, the HR was 226 ± 18 beats/min, the “HR × LVDP” value is 9.4 ± 2.0 ×10.3 and the SP was determined as 58 ± 6 mm Hg. Further, in assay [4] (setting [7]), the DP is given as 4.7 ± 0.3 mm Hg, the HR is listed as 280 ± 10 beats/min, the “HR × LVDP” value was determined as 24.1 ± 0.6 ×10.3 and the SP is 97 ± 4 mm Hg. Moreover, in assay [4] (setting [8]), the “Mitochondria Type A (normal)” value is on record as 14.3* %; the “Mitochondria Type B (swollen, unbroken)” value is on record as 19.5%; the “Mitochondria Type C (ruptured membranes)” value stood at 66.2%; the “Sarcomeres Type A (normal)” value is 13.7+ %. Further, the “Sarcomeres Type B (contacted and/or necrosis)” value in assay [4] (setting [8]) is given as 86.3+ %.
